Experimental findings from ChEMBL document CHEMBL3232866, “Design of novel potent antihyperlipidemic agents with antioxidant/anti-inflammatory properties: exploiting phenothiazine's strong antioxidant activity” (J Med Chem, 2014) are described below.

The term IC50 denotes the concentration that gives 50% inhibition. For orientation: inhibition means the change of the read-out against control, counted positive when it falls. As usually defined, the inhibition in vivo is the share of the control response that was lost under treatment.

Activity calls are given as the source filed them. No cut-off for these calls is given here.

The test system of data set [1] is Mus musculus. As to the kind of experiment: Effect on food intake in chronic high-fat diet (2.5 w/w cholesterol, 0.5% w/w cholic acid, 10% w/w peanut oil) fed SKH-2 mouse at 56 umol/kg, ip bid for 30 days. The class given is ADME, organism-based. To be noted: in vivo, 720 h.
Data set [2] in a line: Antioxidant activity in rat liver microsome membrane assessed as inhibition of lipid peroxidation after 45 mins by TBARS-based spectrophotometric assay. The class given is functional, microsomes. On the technique in general: Liver microsomes are vesicles of endoplasmic reticulum, rich in cytochrome P450 enzymes.
For data set [3], the system named is Mus musculus. The data set can be described thus: Effect on blood glucose level in chronic high-fat diet (2.5 w/w cholesterol, 0.5% w/w cholic acid, 10% w/w peanut oil) fed SKH-2 mouse at 56 umol/kg, ip bid for 30 days. To be noted: in vivo, 720 h. The data set is classed as ADME, organism-based.
The next data set concerns the target T1, Squalene synthase (Rattus norvegicus, UniProt Q02769).
T1 sequence (Q02769 whole entry): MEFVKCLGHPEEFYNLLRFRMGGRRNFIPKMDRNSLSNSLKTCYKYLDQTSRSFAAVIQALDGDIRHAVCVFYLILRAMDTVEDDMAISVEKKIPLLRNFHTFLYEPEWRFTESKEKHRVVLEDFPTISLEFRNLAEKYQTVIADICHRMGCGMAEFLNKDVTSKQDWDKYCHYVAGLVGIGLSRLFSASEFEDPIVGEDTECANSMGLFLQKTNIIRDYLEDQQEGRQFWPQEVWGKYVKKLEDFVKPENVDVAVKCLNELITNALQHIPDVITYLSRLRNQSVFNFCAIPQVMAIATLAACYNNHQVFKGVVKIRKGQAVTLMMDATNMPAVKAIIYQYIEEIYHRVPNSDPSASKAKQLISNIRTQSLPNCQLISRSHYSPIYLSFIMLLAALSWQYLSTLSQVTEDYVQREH
As to the kind of experiment: (§1) Inhibition of squalene synthase in rat liver microsomes assessed as decrease in conversion of [3H]FPP to squalene.

In data set [4] the target is T2, Squalene synthase (Rattus norvegicus) (UniProt Q02769).
T2 sequence (whole entry): T1 sequence (Q02769 whole entry)
Described as §1.

Data set [5] addresses T3, Prostaglandin G/H synthase 1 (Bos taurus) (UniProt O62664).
T3 sequence (whole entry): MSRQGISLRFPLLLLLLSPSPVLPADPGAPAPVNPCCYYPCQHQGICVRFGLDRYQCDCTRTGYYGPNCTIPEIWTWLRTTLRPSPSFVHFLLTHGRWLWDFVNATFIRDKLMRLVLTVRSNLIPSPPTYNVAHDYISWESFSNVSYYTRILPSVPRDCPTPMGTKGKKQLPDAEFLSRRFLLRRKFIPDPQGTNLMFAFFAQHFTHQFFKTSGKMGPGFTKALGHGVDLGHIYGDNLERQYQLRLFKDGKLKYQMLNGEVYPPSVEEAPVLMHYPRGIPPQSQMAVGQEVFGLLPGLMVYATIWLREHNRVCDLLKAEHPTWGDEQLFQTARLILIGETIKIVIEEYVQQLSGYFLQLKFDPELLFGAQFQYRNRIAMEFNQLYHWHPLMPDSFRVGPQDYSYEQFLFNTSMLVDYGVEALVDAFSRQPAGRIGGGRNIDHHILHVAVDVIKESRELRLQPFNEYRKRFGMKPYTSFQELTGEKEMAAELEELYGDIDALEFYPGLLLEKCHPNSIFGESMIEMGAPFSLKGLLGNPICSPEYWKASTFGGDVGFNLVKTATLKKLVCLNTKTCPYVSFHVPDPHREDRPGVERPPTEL
As to the kind of experiment: Inhibition of bovine COX-1 assessed as PGF2-alpha formation using arachidonic acid as substrate at 20 uM by enzyme immunoassay.

The subject of data set [6] is Radical scavenging activity. The data set can be described thus: Antioxidant activity assessed as DPPH radical scavenging activity after 30 mins. The data set is classed as functional.
Data set [7] relates to Mus musculus. As to the kind of experiment: Effect on body weight in chronic high-fat diet (2.5 w/w cholesterol, 0.5% w/w cholic acid, 10% w/w peanut oil) fed SKH-2 mouse at 56 umol/kg, ip bid for 30 days. The class given is ADME, organism-based. To be noted: in vivo, 720 h.
For data set [8], the system named is Mus musculus. As to the kind of experiment: Antidyslipidemic activity in chronic high-fat diet (2.5 w/w cholesterol, 0.5% w/w cholic acid, 10% w/w peanut oil) fed SKH-2 mouse assessed as decrease in LDL level in plasma at 56 umol/kg, ip bid for 21 days. The class given is functional. To be noted: SKH-2, Plasma, 504 h.
Data set [9] has as its system Radical scavenging activity. The data set can be described thus: Antioxidant activity assessed as DPPH radical scavenging activity up to 50 uM measured within 15 mins. The data set is classed as functional.
In data set [10] the test system is Mus musculus. As to the kind of experiment: Antidyslipidemic activity in chronic high-fat diet (2.5 w/w cholesterol, 0.5% w/w cholic acid, 10% w/w peanut oil) fed SKH-2 mouse assessed as HDL/LDL ratio in plasma at 56 umol/kg, ip bid for 30 days measured on day 30 (reference value: 0.2 no unit). The class given is functional.
Data set [11] concerns Mus musculus. As to the kind of experiment: Antidyslipidemic activity in chronic high-fat diet (2.5 w/w cholesterol, 0.5% w/w cholic acid, 10% w/w peanut oil) fed SKH-2 mouse assessed as increase in HDL level in plasma at 56 umol/kg, ip bid for 30 days measured on day 30 relative to control. The data set is classed as functional.
Data set [12] deals with Mus musculus. As to the kind of experiment: Antidyslipidemic activity in chronic high-fat diet (2.5 w/w cholesterol, 0.5% w/w cholic acid, 10% w/w peanut oil) fed SKH-2 mouse assessed as decrease in total cholesterol level in plasma at 56 umol/kg, ip bid for 21 days. The data set is classed as functional. To be noted: SKH-2, Plasma, 504 h.
Data set [13] deals with Mus musculus. The data set can be described thus: Antidyslipidemic activity in chronic high-fat diet (2.5 w/w cholesterol, 0.5% w/w cholic acid, 10% w/w peanut oil) fed SKH-2 mouse assessed as increase in HDL level in plasma at 56 umol/kg, ip bid for 30 days measured on day 30 relative to day 0. The data set is classed as functional.

In the case of `CN1CC(O)(c2ccc3c(c2)Nc2ccccc2S3)Sc2ccccc21` (centres undefined), the Activity entry with Mus musculus [1] is given as “Non-toxic”; in the data set on Mus musculus [3] it was “Non-toxic”; in the data set with Mus musculus [7], “Non-toxic”; in the data set on Mus musculus [11] it was 32%; in the data set on Mus musculus [13], 100%. For the same compound, the IC50 in [2] was found to be 980 nM; on Squalene synthase, 3.6 µM; in data set [6], 77 µM. In addition, the inhibition entry is “Dose-dependent effect” in [4] and 67% in data set [5]. Further, the inhibition in vivo at 56 µmol/kg in the data set with Mus musculus [8] stood at 80%; in the data set on Mus musculus [12], 48%. Besides, in data set [9], the result was Active. The Ratio with Mus musculus [10] came out at 1.3.
